According to patent publication US10314820B2, “Imidazole-based heterocyclic compounds” (priority 2014, dated 2019):

How the values were obtained:
[1] = tested on: Human keratinocytes (HaCaT cells); assay: Human cytotoxicity assay in vitro (CellTiter-Glo), keratinocytes; type: cell-based; conditions: keratinocyte cytotoxicity score; 24 h exposure
[2] = tested on: Human hepatocytes (HepaRG cells); assay: Human cytotoxicity assay in vitro (CellTiter-Glo), hepatocytes; type: cell-based; conditions: hepatocyte cytotoxicity score; 24 h exposure

Row | SMILES | cytotoxicity cell line K [1] | cytotoxicity cell line H [2]
1 | Cc1nc(-c2ccc(-c3ccc(Cl)cc3Cl)o2)[nH]c1-c1ccc(F)cc1 [Compound 16] | 1 (compounds causing less than 50% inhibition of cell viability at 50 μM) | 3
2 | FC(F)(F)c1ccccc1-c1ccc(-c2nc(Cl)c(-c3ccccc3)[nH]2)o1 [Compound 65] | – | 2
3 | Cc1[nH]c(-c2csc(-c3ccc(F)cc3)n2)nc1-c1ccccc1 [Compound 11] | 2 (compounds causing>50% inhibition of cell viability at 25 μM) | 1 (compounds not causing a loss of viability at concentrations between 25 and 50 μM)
4 | Cc1ccc(-c2nc(-c3nc(-c4ccccc4)c(C)[nH]3)co2)cc1 [Compound 57] | 3 (compounds causing more than 50% inhibition of cell viability at 10 μM) | 1 (compounds not causing a loss of viability at concentrations between 25 and 50 μM)
5 | Cc1[nH]c(-c2ccc(-c3ccc(Cl)cc3)s2)nc1-c1ccccc1 [Compound 6] | 0 (compounds not causing loss of cell viability at concentrations of 50 μM or higher) | 0 (compounds without signs of cell viability loss at concentrations of 50 μM or higher)
6 | Cc1[nH]c(-c2csc(-c3cccc(Br)c3)n2)nc1-c1ccccc1 [Compound 14] | 1 (compounds causing less than 50% inhibition of cell viability at 50 μM) | 1 (compounds not causing a loss of viability at concentrations between 25 and 50 μM)
7 | Cc1[nH]c(-c2ccc(-c3ccc(F)cc3)s2)nc1-c1ccccc1 [Compound 7] | 2 (compounds causing>50% inhibition of cell viability at 25 μM) | 1 (compounds not causing a loss of viability at concentrations between 25 and 50 μM)
8 | Cc1ccc(-c2nc(-c3nc(-c4ccccc4)c(C)[nH]3)cs2)cc1 [Compound 56] | 3 (compounds causing more than 50% inhibition of cell viability at 10 μM) | 1 (compounds not causing a loss of viability at concentrations between 25 and 50 μM)
9 | Cc1[nH]c(-c2cc(C)n(-c3cccc(C(F)(F)F)c3)c2C)nc1-c1ccccc1 [Compound 36] | 2 (compounds causing>50% inhibition of cell viability at 25 μM) | 3
10 | Cc1ccc(-c2ccc(-c3nc(-c4ccccc4)c(C)[nH]3)s2)cc1 [Compound 54] | 1 (compounds causing less than 50% inhibition of cell viability at 50 μM) | 1 (compounds not causing a loss of viability at concentrations between 25 and 50 μM)
11 | Cc1nc(-c2ccc(-c3cccc(OC(F)(F)F)c3)o2)[nH]c1-c1ccc(F)cc1 [Compound 37] | 2 (compounds causing>50% inhibition of cell viability at 25 μM) | 3
12 | FC(F)(F)Oc1ccccc1-c1ccc(-c2nc(-c3ccccc3Cl)c[nH]2)o1 [Compound 67] | 2 (compounds causing>50% inhibition of cell viability at 25 μM) | 2
13 | Cc1[nH]c(-c2ccc(-c3cccc(Cl)c3)s2)nc1-c1ccccc1 [Compound 12] | 2 (compounds causing>50% inhibition of cell viability at 25 μM) | 1 (compounds not causing a loss of viability at concentrations between 25 and 50 μM)
14 | CCc1ccc(-c2[nH]c(-c3ccc(-c4ccccc4C(F)(F)F)o3)nc2C)cc1 [Compound 28] | 0 (compounds not causing loss of cell viability at concentrations of 50 μM or higher) | 1 (compounds not causing a loss of viability at concentrations between 25 and 50 μM)
15 | Cc1[nH]c(-c2ccn(-c3ccccc3C(F)(F)F)c2)nc1-c1ccccc1 [Compound 33] | 3 (compounds causing more than 50% inhibition of cell viability at 10 μM) | –
16 | FC(F)(F)Oc1ccccc1-c1ccc(-c2nc(-c3ccc(Cl)cc3Cl)c[nH]2)o1 [Compound 68] | 2 (compounds causing>50% inhibition of cell viability at 25 μM) | 2
17 | Cc1ccc(-c2ncc(-c3nc(-c4ccccc4)c(C)[nH]3)s2)cc1 [Compound 55] | – | 1 (compounds not causing a loss of viability at concentrations between 25 and 50 μM)
18 | Cc1[nH]c(-c2cc(C)n(-c3ccc(C(C)C)cc3)c2C)nc1-c1ccccc1 [Compound 58] | 2 (compounds causing>50% inhibition of cell viability at 25 μM) | 3
19 | Cc1[nH]c(-c2ccc(-c3ccccc3C(F)(F)F)o2)nc1-c1cccc(Cl)c1 [Compound 22] | 2 (compounds causing>50% inhibition of cell viability at 25 μM) | –

Row | SMILES | cytotoxicity cell line K [1] | cytotoxicity cell line H [2]
20 | C#Cc1ccc(-c2nc(-c3ccc(-c4ccccc4C(F)(F)F)o3)[nH]c2C)cc1 [Compound 27] | 2 (compounds causing>50% inhibition of cell viability at 25 μM) | 1 (compounds not causing a loss of viability at concentrations between 25 and 50 μM)
21 | Cc1[nH]c(-c2cc(C)n(-c3ccc4c(c3)CCC4)c2C)nc1-c1ccccc1 [Compound 59] | 2 (compounds causing>50% inhibition of cell viability at 25 μM) | 2
22 | Cc1nc(-c2ccc(-c3ccccc3OC(F)(F)F)o2)[nH]c1-c1cccc(Cl)c1 [Compound 21] | 2 (compounds causing>50% inhibition of cell viability at 25 μM) | 3
23 | Cc1nc(-c2ccc(-c3ccc(Cl)c(OC(F)(F)F)c3)o2)[nH]c1-c1ccc(F)cc1 [Compound 43] | – | 3
24 | Cc1[nH]c(-c2ccc(-c3ccccc3C(F)(F)F)o2)nc1-c1ccc(Br)cc1 [Compound 25] | 0 (compounds not causing loss of cell viability at concentrations of 50 μM or higher) | 0 (compounds without signs of cell viability loss at concentrations of 50 μM or higher)
25 | Cc1[nH]c(-c2ccc(-c3ccccc3)s2)nc1-c1ccccc1 [Compound 74] | 3 (compounds causing more than 50% inhibition of cell viability at 10 μM) | 1 (compounds not causing a loss of viability at concentrations between 25 and 50 μM)
26 | Cc1[nH]c(-c2cc(C)n(-c3ccc(F)c(F)c3F)c2C)nc1-c1ccccc1 [Compound 10] | 2 (compounds causing>50% inhibition of cell viability at 25 μM) | 3
27 | Cc1[nH]c(-c2coc(-c3ccccc3C(F)(F)F)c2)nc1-c1ccccc1 [Compound 72] | 2 (compounds causing>50% inhibition of cell viability at 25 μM) | 3
28 | Cc1[nH]c(-c2ccc(-c3ccc(OC(F)(F)F)cc3Cl)o2)nc1-c1ccc(F)cc1 [Compound 51] | 3 (compounds causing more than 50% inhibition of cell viability at 10 μM) | 3
29 | Cc1[nH]c(-c2ccc(-c3ccc(OC(F)(F)F)cc3)o2)nc1-c1ccc(Cl)cc1 [Compound 48] | 1 (compounds causing less than 50% inhibition of cell viability at 50 μM) | 2
30 | Cc1nc(-c2ccc(-c3ccccc3C(F)(F)F)o2)[nH]c1-c1ccccc1Cl [Compound 20] | 0 (compounds not causing loss of cell viability at concentrations of 50 μM or higher) | 3
31 | Cc1[nH]c(-c2cc(C)n(-c3ccc(F)cc3F)c2C)nc1-c1ccccc1 [Compound 9] | 2 (compounds causing>50% inhibition of cell viability at 25 μM) | 3
32 | Cc1[nH]c(-c2ccc(-c3ccccc3OC(F)(F)F)o2)nc1-c1ccc(C(F)(F)F)cc1 [Compound 26] | 0 (compounds not causing loss of cell viability at concentrations of 50 μM or higher) | 1 (compounds not causing a loss of viability at concentrations between 25 and 50 μM)
33 | Cc1[nH]c(-c2ccc(-c3cccc(C(F)(F)F)c3)o2)nc1-c1ccc(F)cc1 [Compound 38] | 2 (compounds causing>50% inhibition of cell viability at 25 μM) | 1 (compounds not causing a loss of viability at concentrations between 25 and 50 μM)
34 | FC(F)(F)Oc1ccccc1-c1ccc(-c2ncc(-c3ccccc3)[nH]2)o1 [Compound 63] | – | 2
35 | Cc1[nH]c(-c2ccc(-c3ccc(C(F)(F)F)cc3)s2)nc1-c1ccccc1 [Compound 46] | 1 (compounds causing less than 50% inhibition of cell viability at 50 μM) | 1 (compounds not causing a loss of viability at concentrations between 25 and 50 μM)
36 | Cc1[nH]c(-c2ccc(-c3ccccc3OC(F)(F)F)o2)nc1Cc1ccc(Br)cc1 [Compound 30, 4-(4-Bromo-benzyl)-5-methyl-2-[5-(2-trifluoromethoxy-phenyl)-furan-2-yl]-1H-imidazole] | 3 (compounds causing more than 50% inhibition of cell viability at 10 μM) | 3
37 | Cc1[nH]c(-c2ccc(-c3cccc(Br)c3)s2)nc1-c1ccccc1 [Compound 13] | 1 (compounds causing less than 50% inhibition of cell viability at 50 μM) | 1 (compounds not causing a loss of viability at concentrations between 25 and 50 μM)
